Reference: the NIST ThermoML archive (doi:10.1021/je2008523)
Numbers after ± are expanded uncertainties.

Assays:
[1] = refractive index (Na D-line) (dimensionless); conditions: 303.1 K; 101.33 kPa; Liquid; Standard Abbe refractometry

For `CN(CCO)CCO` [N-methyldiethanolamine], the refractive index [1] was 1.46008 ± 0.00051, the mass density (298.1 K, 101.33 kPa, Liquid, Vibrating tube method) was 1038.11 ± 0.92 kg/m3 and the viscosity (298.15 K, 101.33 kPa, Liquid, Capillary tube (Ostwald / Ubbelohde) method) was 77.09 ± 1.8 mPa·s. It also gave a surface tension liquid-gas (303.15 K, Pendant drop shape) of 38.26 ± 0.53 mN/m.
